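Following 48 hours of exposure in 96-well plates, responses at five concentrations were used to interpolate endpoints linearly. The concentration for full growth arrest is given as TGI.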
Columns and labels:
Assay in all cases: NCI anticancer screen, dose series, 48 h
[1] = tested on: UACC-62 melanoma
[2] = tested on: MALME-3M melanoma
[3] = tested on: HCT-116 colon
[4] = tested on: KM12 colon
[5] = tested on: 786-0 renal
[6] = tested on: SNB-75 CNS
[7] = tested on: UO-31 renal
[8] = tested on: UACC-257 melanoma
[9] = tested on: OVCAR-4 ovarian
[10] = tested on: HCT-15 colon

Row | Compound | TGI [1] [µM] | TGI [2] [µM] | TGI [3] [µM] | TGI [4] [µM] | TGI [5] [µM] | TGI [6] [µM] | TGI [7] [µM] | TGI [8] [µM] | TGI [9] [µM] | TGI [10] [µM]
1 | CC(NC(=O)Cc1ccccc1)NC(=O)C(C)C(=O)Nc1ccccc1 (stereo unspecified) | > 100 | > 100 | > 100 | > 100 | > 100 | > 100 | > 100 | > 100 | > 100 | > 100
2 | CC1=CCC([C@@](C)(O)CCCC(C)(C)N=C=S)CC1 (stereo partly specified) | 34.7 | 28.3 | 26.6 | 29.5 | 31.6 | 32.4 | 26.7 | 35 | 30.9 | 34.2
3 | Nc1ccc(N=Nc2c(S(=O)(=O)O)cc3ccccc3c2S(=O)(=O)O)cc1 | > 100 | > 100 | > 100 | > 100 | > 100 | > 100 | > 100 | > 100 | > 100 | > 100
4 | COC(=O)/C=C\C(C#N)(C#N)N=Cc1ccc(C)cc1 | 28.4 | 5.5 | 3.57 | 35.3 | 3.44 | 31 | 7.16 | 12.6 | 12.9 | 6.87
5 | COc1ccc(C2c3cn[nH]c3CC3CCCCC32)cc1 (stereo unspecified) | 24.6 | 38.4 | 31.7 |  | 33.2 | 27.2 | 29.9 | 45.9 | 43.5 | 31.7
6 | O=S(=O)(O)C(CO)c1ccccc1 (stereo unspecified) (tested in a mixture with another compound) | > 100 | > 100 | > 100 | > 100 | > 100 | > 100 | > 100 | > 100 | > 100 | > 100
7 | COc1ccc(N2C(=O)CC(=O)N(NC(=O)C(C)Oc3ccccc3C)C2=S)cc1 (stereo unspecified) | > 100 | > 100 | > 100 | > 100 | > 100 | > 100 | > 100 | > 100 | > 100 | > 100
8 | O=C(O)CN1CCN2CCCCCN(CC1)CCN(CC(=O)O)CC2 | > 100 | > 100 | > 100 | > 100 | > 100 | 95.3 | > 100 | > 100 | > 100 | > 100
9 | O=C1NC2c3c(I)sc(I)c3C(O)C2O1 (stereo unspecified) | > 100 | > 100 | > 100 | > 100 | > 100 | > 100 | > 100 | > 100 | > 100 | > 100
10 | CCCNc1ncnc2c1ncn2C | > 100 | > 100 | > 100 | > 100 | > 100 | > 100 | > 100 | > 100 | > 100 | > 100
11 | Cc1nn(-c2ccccc2)c2c1C(c1cc3ccccc3nc1Cl)NC(=O)N2 (stereo unspecified) | 42.5 | 51.8 | 84.6 | 53.1 | 35.2 | 50.2 | 28.2 | 85.9 | > 100 | 48.1
12 | Clc1ccc(-c2nnc3sc4nc5ccccc5c-4nn23)c(Cl)c1 | > 100 | > 100 | > 100 | > 100 | > 100 | > 100 | > 100 | > 100 | > 100 | > 100
13 | CSc1nc(SC)c2c(C#N)[nH]nc2n1 | > 100 | > 100 |  | > 100 | > 100 | > 100 | > 100 | > 100 | > 100 | > 100
14 | O=C(O)CN1CCNCCN(CC(=O)O)CCN(CC(=O)O)CCNCC1 | > 100 | > 100 | > 100 | > 100 | > 100 | > 100 | > 100 | > 100 | > 100 | > 100
15 | O=[N+]([O-])C(=C(Nc1ccccc1)Nc1ccccc1)C(Cl)=C(Cl)Cl | 32.2 | 41.9 | 25.5 | > 55.5 | 29.4 | 36.5 | 39.6 | 30.7 | 24.8 | 32.3
16 | CC(=O)NC1C(OCc2ccccc2)OC(CO)C(O)C1OCC(=O)N[C@@H](C)C(=O)N[C@H](CCC(=O)NCCCNc1c2ccccc2nc2cccc([N+](=O)[O-])c12)C(N)=O (stereo partly specified) | 0.0601 | 0.129 | 0.034 | 0.397 | 0.0795 | 0.362 | 0.341 | 0.177 | 0.267 | 0.376
17 | COc1cc(OC)c2c(=O)cc(-c3ccc(OC)c(OC)c3OC)oc2c1 | > 100 | > 100 | > 100 | > 100 | > 100 | 45.3 |  | > 100 | > 100 | > 100
18 | O=C(CCn1ccnc1[N+](=O)[O-])NCCCn1ccnc1[N+](=O)[O-] | > 100 | > 100 | > 100 | > 100 | > 100 | > 100 | > 100 | > 100 | > 100 | > 100
19 | O=C(O)c1ccccc1CC(Cc1ccc2c(c1)CCC2)C(=O)O (stereo unspecified) |  | > 100 | > 100 | > 100 | > 100 | > 100 | > 100 | > 100 | > 100 | > 100
20 | C=C1C(=O)CC2C1CC(=O)/C(C)=C/CCC(C)(O)C2O (stereo unspecified) | 14.8 | 3.01 | 6.92 | 29.8 | 7.91 | 28 | 17.3 | 12.6 | 29.1 | 11.5
21 | C/C(C[n+]1ccccc1)=N\N=C(N)N | > 100 | > 100 | > 100 | > 100 | > 100 | > 100 | > 100 | > 100 | > 100 | > 100
22 | Oc1cc(Cl)cc2cccnc12 | 7.49 | 54.5 | > 23.3 | > 100 | > 54.9 | > 100 | > 100 | > 29.9 | > 100 | > 100

Row | Compound | TGI [1] [µM] | TGI [2] [µM] | TGI [3] [µM] | TGI [4] [µM] | TGI [5] [µM] | TGI [6] [µM] | TGI [7] [µM] | TGI [8] [µM] | TGI [9] [µM] | TGI [10] [µM]
23 | CC(O)CNC(=O)C(C)Oc1ccc(OCC2CCCCC2)cc1 (stereo unspecified) | > 100 | > 100 | > 100 | > 100 | > 100 | > 100 | > 100 | > 100 | > 100 | > 100
24 | Cc1cc(/N=C/c2ccc(N(C)C)cc2)n(-c2ccccc2)n1 | > 100 | > 100 | > 100 | > 100 | > 100 | > 100 | > 100 | > 100 | > 100 | > 100
25 | CC1(C)[C@@H]2CC[C@@]1(C)CN(CCC[N+](C)(C)C)C2 | > 100 | > 100 | > 100 | > 100 | > 100 | > 100 | > 100 | > 100 | > 100 | > 100
26 | O=[N+]([O-])C(=C(Nc1cccc2cccnc12)Nc1cccc2cccnc12)C(Cl)=C(Cl)Cl | > 100 | > 100 | > 100 | > 100 | > 100 | > 100 | > 100 |  | > 96.1 | > 100
27 | S=c1c2cn[nH]c2nc2scc(-c3ccc(Cl)cc3)n12 | > 100 | 49.6 | 27.9 | 28.8 | 29.4 | 28.2 | 41.8 | > 100 | > 100 | 26.1
28 | CC(=NNC(=S)Nc1ccccc1)c1cccc(C(C)=NNC(=S)Nc2ccccc2)n1 | 26.7 | 52.5 | > 100 | > 100 | 35.4 | > 100 | > 52.1 | > 100 | > 100 | > 100
29 | Cn1c(SCc2ccc(F)cc2)nnc1C12CC3CC(CC(C3)C1)C2 | > 100 | 60.8 | > 100 |  | > 100 | > 100 | > 100 | 91.7 | > 100 | > 100
30 | COC(C)(C)C1(O)CC[C@@H](C)CC1=O (stereo partly specified) | > 100 | > 100 | > 100 | > 100 | > 100 | > 100 | > 100 | > 100 | > 100 | > 100
31 | CC(C)(C)[Si](C)(C)OCC1OC(n2ccc(=O)[nH]c2=O)C(O[Si](C)(C)C(C)(C)C)/C1=C/C#N (stereo unspecified) | 2.75 | > 100 | > 53.2 | > 42.2 | > 100 | > 100 | > 100 | > 100 | > 100 | > 100
32 | N[C@@H](Cc1ccccc1)C(=O)N1CCC[C@@H]1P(=O)(Oc1ccccc1)Oc1ccccc1 | > 100 | > 100 | > 100 | > 100 | > 100 | > 100 | > 100 | > 100 | > 100 | > 100
33 | NS(=O)(=O)c1ccc(NC(=S)/N=C/C2=C(O)c3ccccc3C2=O)cc1 | > 100 | > 100 | > 100 | > 100 | > 100 | 76.4 | 85.6 | > 100 | > 100 | > 100
34 | CSC1=N/C(=C\c2ccc(C)cc2)C(=O)N1CN1CCCCC1 | > 100 | > 100 | > 100 | > 100 | > 100 | > 100 | > 100 |  | > 100 | > 100
35 | O=C1OCC/C1=N/O | > 100 | > 100 | > 100 | > 100 | > 100 | > 100 | > 100 | > 100 | > 100 | > 100
36 | CCOC(=O)c1cccc(N=Nc2nc[nH]c2/C=C/C(=O)OC)c1 | > 100 | 71.8 | > 100 | > 100 | > 100 | 58.7 | > 100 | 60.4 | > 100 | > 100
37 | CCNC(=S)NNC(=O)C12CC3CC(CC(C3)C1)C2 | > 100 | > 100 | > 100 | > 100 | > 100 | > 100 | > 100 | > 100 | > 100 | > 100
38 | Cc1nc(C)c(N2CCN([N+](=O)[O-])CC2)c(=O)[nH]1 | > 100 | > 100 | > 100 | > 100 | > 100 | 0.611 | > 100 | > 100 | > 100 | > 100
39 | O=C(O)[C@H]1CCCN1CP(=O)(O)CN1CCC[C@@H]1C(=O)O | > 100 | > 100 | > 100 | > 100 | > 100 | > 100 | > 100 | > 100 | > 100 | > 100
40 | COc1ccc(CCN(C)C2CCC(C#N)(c3ccc(OC)c(OC)c3)CC2)cc1OC (stereo unspecified) | > 100 | > 100 | > 100 | > 100 | > 100 | > 100 | > 100 | > 100 | > 100 | > 100
41 | O=C(NCP(=O)(Oc1ccccc1)Oc1ccccc1)OCc1ccccc1 | > 100 | > 100 |  | > 100 | > 100 | > 100 | > 100 | > 100 | > 100 | > 100
42 | On1c(-c2ccccc2)c(-c2ccccc2N2CCCC2)c2ccccc21 | > 100 | > 100 | > 100 | > 100 | > 100 | > 100 |  | > 100 | > 100 | > 100
43 | N#CC(C#N)=C1SC(=Nc2ccccc2)C(=Nc2ccccc2)N1c1ccccc1 | 14.2 | 67.6 | 32.7 | > 53.8 | 60.8 | > 100 | 25.3 | 30 | 34.8 | 6.3
44 | Cc1c2cc[n+](C)c(C)c2cc2c1[nH]c1ccccc12 | 48.8 | 14.2 | > 86.1 | 21.1 | > 39.5 | 6.98 | > 100 | 65.8 | 43.3 | > 100
